In a melting point compilation (Tetko et al.; mined from patent text by program, amines drawn as free bases though some values may be those of a salt):

For CCCCOC(=O)CCCCCCCCCCCOCC(O)CNCCO (configuration not stated), the melting point was 48.6 to 50.2 °C. In the case of CC12CCC(C(=O)CC1=O)C2(C)C (configuration not stated), the melting point is reported as 220 °C. Work on CCCCCCCCCCCCCCCCCC(c1ccc(O)cc1)c1ccc(O)cc1 yielded a melting point of 88 to 90 °C. For O=C(c1ccccc1)c1ccc(N2CCC(N3Cc4ccccc4C3=O)CC2)cc1, the melting point was 173 to 175 °C. With CC(C)(C)c1ccc(OC(CC(=O)O)C(=O)O)c(C(C)(C)C)c1 (configuration not stated) the melting point was 177 to 181 °C. Molecule CCCCOC(=O)c1ccc(Nc2ncc(C(=O)OCC)c(=O)[nH]2)cc1 has a melting point of 281 to 283 °C. CCCC/C=C\c1c([C@H](O)[C@H](CCCC)NC(=O)[C@H](CC(C)C)NC(=O)OCc2ccccc2)c1=O showed a melting point of 87 to 94 °C. COC(=O)c1ccc(C=NNc2cc(C(C)(C)C)cc(C(C)(C)C)c2)cc1 showed a melting point of 215 to 220 °C. Work on CC(=O)Nc1nc(CCc2ccc(N)cc2)c(C(=O)NCc2ccccc2)s1 yielded a melting point of 200 to 201 °C. Work on COc1ccccc1C=CC(=O)CC(=O)C=Cc1ccccc1OC yielded a melting point of 121 to 123 °C. Molecule COc1cc2c(cc1OC)-c1c(-c3ccccc3)c(-c3cc(C)c(O)c(C)c3)c(C)n1CC2 has a melting point of 210 to 214 °C. In the case of CC(=O)Oc1cc(C)cc(C(=O)O)c1C, the melting point is reported as 153 to 154 °C. For O=C(C[C@H]1CCCO1)N[C@H]1CC[C@H](CCN2CCC(c3cccc4c3CCO4)CC2)CC1, the melting point was 192 °C. With O=C(O)COc1cc(Br)c2oc3cccc(F)c3c(=O)c2c1 the melting point was 220 to 223 °C. Cc1cccc(C)c1NC(=O)CN1CCN(CC(O)CC(c2ccc(F)cc2)c2ccc(F)cc2)C(C(N)=O)C1 (configuration not stated) showed a melting point of 110 °C. O=C(O)COc1cccc(OCCC(c2ccccc2)(c2ccccc2)c2ccccc2)c1 showed a melting point of 69 to 71 °C. Work on CC(C)(C)OC(=O)NCC(=O)OCCCCNc1cccc2c1C(=O)c1ccccc1C2=O yielded a melting point of 70 °C. Cc1ccccc1C(=O)Nc1ccc(C(=O)O)cn1 showed a melting point of 235 to 238 °C. In the case of CCC(CC)c1ccc(Cl)c2[nH]c(=O)n(C)c12, the melting point is reported as 165 to 166 °C. With S=C(NCCCCN(Cc1ccc(Cl)c(Cl)c1)c1ccc(Br)cn1)NCCCc1c[nH]cn1 the melting point was 63 to 67 °C. CCOC(=O)CCCOc1ccc2c(c1)CN1CC(=O)NC1=N2 showed a melting point of 243 to 244 °C. For Nc1nc2[nH]c(CCC#Cc3ccc(C(=O)N[C@@H](CCC(=O)O)C(=O)O)s3)cc2c(=O)[nH]1, the melting point was 196 to 197 °C. For OCc1cccc2c(Cl)c3ccccc3cc12, the melting point was 138 to 140 °C. Molecule CN(C)C=NS(=O)(=O)c1c2c(O)cccc2nn1C has a melting point of 118 to 119 °C. Molecule CN(C)Cc1ccc2c(c1)Cc1c(-c3cccs3)n[nH]c1-2 has a melting point of 204 to 206 °C. With Clc1ccc2nc(Cl)nc(-c3ccccc3)c2c1 the melting point was 159 to 160 °C. With Cc1c(C)c2c(c(C)c1N)C(c1ccccc1)C(C)(C)O2 (configuration not stated) the melting point was 131 to 132 °C. Molecule CNC(=O)c1cc(N2CCOCC2)cc([N+](=O)[O-])c1 has a melting point of 204 to 207 °C. Molecule OCCc1nccn1CCCc1ccc(O)cc1 has a melting point of 116 to 117 °C. With CN(C)CCOC(=O)C(=O)c1ccc(OCCOc2ccc3ccccc3c2)s1 the melting point was 76 to 77 °C. Sc1nc2cc(C(c3ccccc3)n3ccnc3)ccc2[nH]1 (configuration not stated) showed a melting point of 260 °C. In the case of O=C(O)CCC(NC(=O)c1ccccc1)C(=O)NC(c1ccccc1)c1ccccc1 (configuration not stated), the melting point is reported as 128 °C. Work on CCCCCCCCCCc1ccc2cc(OC)ccc2c1 yielded a melting point of 48.6 to 49.3 °C. For O=C1C(=O)c2ccc(-c3ccccc3)cc2C2=C1SCC1(CCN(CC(O)COc3ccc(F)cc3)CC1)O2 (configuration not stated), the melting point was 173 to 175 °C. In the case of CON(C)S(=O)(=O)NC(=O)Nc1nc(C)cc(C)n1, the melting point is reported as 152 °C. CC1CCCC(C)N1S(=O)(=O)N[C@@H](Cc1ccc(Nc2nccc3cnccc23)cc1)C(=O)O (some centres not stated) showed a melting point of 204 °C. For CCCCn1c(CCCCN(C(N)=O)c2ccccc2)nc2c(N)nc3ccccc3c21, the melting point was 222 to 225 °C. With CCCCSc1ccc2[nH]c(=O)oc(=O)c2c1 the melting point was 196 to 200 °C. Work on CNC(=O)[C@@H]1C[C@@H](OC)CN1S(=O)(=O)c1ccc(Cl)c(COc2cccc3c2NC(C)(C)C=C3n2cncn2)c1Cl yielded a melting point of 73 °C. Molecule O=C(O)c1cn2c(-c3ccccc3)ncc2c2ccccc12 has a melting point of 187 to 190 °C. For CCc1ccc2c(c1)C=Cc1cc(C)ccc1C2c1cn(-c2ccnc(N3CC(C(=O)O)C3)n2)c(=O)[nH]c1=O (configuration not stated), the melting point was 244 °C. Molecule O=C(O)CC1(c2ccc(Cl)cc2)Oc2ccccc2O1 has a melting point of 138 °C. Molecule CCOC(=O)COc1cccc(C(N)=O)c1 has a melting point of 158 to 159 °C. In the case of CC1CCC(CNc2cc3oc(=O)[nH]c3cc2F)C(C)O1 (configuration not stated), the melting point is reported as 123 to 139 °C. CC(=O)N(C#N)C1(c2ccc(OCc3ccc4ccccc4n3)cc2)CCCCC1 gave a melting point of 90 °C. Molecule COC(=O)c1cc2n(c1)CCc1ccccc1C2=O has a melting point of 125 to 127 °C. Work on CC1(O)CN(c2ccc([N+](=O)[O-])cc2F)C1 yielded a melting point of 109 to 110 °C. With O=Cc1c(C#Cc2ccccc2)sc2ccccc12 the melting point was 105 to 106 °C. Work on O=C1Nc2cccc(-c3ccc(Cl)cc3Cl)c2/C1=C/c1ccc[nH]1 yielded a melting point of 185 to 187 °C. For COC(=O)c1cc(C(=O)c2c(C)c(OC)c3c(OCc4ccccc4)cccn23)ccc1NC(=O)C(F)(F)F, the melting point was 214 °C. In the case of CCOC(=O)C1=CC(OCC)(C(C)C)N(c2ccc(Cl)cc2Cl)N1 (configuration not stated), the melting point is reported as 105 to 110 °C. CCN(CC)c1nc(C)nc2nc(-c3ccncc3)[nH]c12 gave a melting point of 228 to 230 °C. For Cc1cccc(-c2n[nH]cc2-c2ccc(F)c(-c3cc(F)c(S(N)(=O)=O)cc3F)c2)n1, the melting point was 122 to 125 °C. CCCCCCCCCCCCCCCCCC(=O)NCC(C)(C)NCC(O)c1cc(Cl)c(N)c(Cl)c1 (configuration not stated) gave a melting point of 74 to 76 °C. For OC(CCN1CC=C(c2ccc(Cl)cc2)CC1)c1ccc(Cl)cc1Cl (configuration not stated), the melting point was 96 to 98 °C. Molecule CSc1ccc(-n2cnc3ccc(-c4nnc(C)o4)cc32)cc1 has a melting point of 202 to 204 °C. Molecule CCOC(=O)C1=C(C)NN=C(CC)C1c1ccc([N+](=O)[O-])cc1 (configuration not stated) has a melting point of 141 °C. In the case of Cn1nc(Cc2ccc(O)c(Cl)c2Cl)c(Cl)c1OC(F)F, the melting point is reported as 127 to 128 °C. With COc1ccc(OC)c(Cc2ccc3[nH]c(=S)[nH]c3c2)c1 the melting point was 210 to 211 °C. COc1cc(-c2ccc(NN)nn2)ccc1OC(F)F showed a melting point of 154 °C. With CC(C)CCC1=Cc2c(F)cc(F)cc2N(C)C1C (configuration not stated) the melting point was 154 to 155 °C. For O=C1CCC(c2ccc(-n3cccc3)cc2)=NN1, the melting point was 222 to 223 °C. COC(=O)N1CCC(=O)C(C2(NO)OCCO2)CC1 (configuration not stated) gave a melting point of 152 to 154 °C. For COc1cc(OC)c(-c2nc(C)no2)cc1C=O, the melting point was 182 to 183 °C. O=C1COc2ccc(CO)cc2N1 showed a melting point of 186 to 187 °C. Nc1ccc(CCc2nc3ccccc3s2)cc1 gave a melting point of 79 to 81 °C. COc1cc(C(=O)NCCc2ccccc2)cc([N+](=O)[O-])c1OC gave a melting point of 121 to 122 °C. Molecule COc1ccc(-c2nn(Cc3ccccc3)c(=O)cc2-c2ccncc2)cc1 has a melting point of 154 to 155 °C. With CCOC(=O)CNC(=O)c1cc(F)c(F)cc1N the melting point was 147 °C. CNC1C(O)C(OC2C(N)CC(N)C(OC3OC(C(C)O)C(O)C(O)C3N)C2O)OCC1(C)O (configuration not stated) showed a melting point of 65 °C. CC#Cc1ccc(NC(=O)c2ccccc2NCc2ccc(=O)[nH]c2)cc1C(F)(F)F showed a melting point of 208 to 212 °C. COc1cc(OC)c(-c2cccs2)cc1/C=C/C(=O)c1ccc(S(=O)(=O)Nc2ccc(C(F)(F)F)cn2)cc1 showed a melting point of 228 to 229 °C.
